Measurements published in patent publication US20220015362A1, “COMPOSITIONS COMPRISING HALAUXIFEN AND OTHER HERBICIDES AND METHODS THEREOF” (DOW AGROSCIENCES LLC, priority 2018, published 2022).

Tested on: ERISU (Conyza sumatrensis, Sumatran fleabane)
Test: Greenhouse post-emergence foliar weed control trial, visual injury score 0-100 percent
Assay type: in vivo
Details: 400 gai/ha
Text: Results in Examples are greenhouse trial results.
Seeds or nutlets of the desired test plant species were planted in a soil matrix prepared by mixing a loam or sandy loam soil (e.g., 28.6 percent silt, 18.8 percent clay, and 52.6 percent sand, with a pH of about 5.8 and an organic matter content of about 1.8 percent) and calcareous grit in an 80 to 20 ratio. The soil matrix was contained in plastic pots with a volume of 1 quart and a surface area of 83.6 cm2. When required to ensure good germination and healthy plants, a fungicide treatment and/or other chemical or physical treatment was applied. The plants were grown for 8-22 days in a greenhouse with an approximate 14 h photoperiod which was maintained at about 29° C. during the day and 26° C. during the night. Nutrients (Peters Excel® 15-5-155-Ca 2-Mg and iron chelate) were applied in the irrigation solution as needed and water was added on a regular basis. Supplemental lighting was provided with overhead metal halide 1000-Watt lamps as necessary. The plants were employed for testing when they reached the first through fourth true leaf stage.
Treatments comprised of the acid or esters of halauxifen-methyl (methyl 4-amino-3-chloro-6-(4-chloro-2-fluoro-3-methoxyphenyl)picolinate), each formulated as an SC (suspension concentrate), and various herbicidal components alone and in combination. A form of the compound of Formula I were applied on an acid equivalent basis.
Treatment requirements were calculated based upon the rates being tested, the concentration of active ingredient or acid equivalent in the formulation, and a 12 mL application volume at a rate of 187 L/ha.
For treatments comprised of formulated and technical compounds, weighed amounts of the technical materials were placed individually in 25 mL glass vials and dissolved in a volume of 97:3 v/v acetone/DMSO to obtain 12× stock solutions, and measured amounts of the formulated compounds were placed individually in 25 mL glass vials and diluted in a volume of 1.5% (v/v) crop oil concentrate or water to obtain 12× stock solutions. […] As required, additional water and/or 97:3 v/v acetone/DMSO was added to individual application solutions so that the final acetone and DMSO concentrations of the application solutions being compared were 8.1% and 0.25%, respectively.
All stock solutions and applications solutions were visually inspected for compound compatibility prior to application. Spray solutions were applied to the plant material with an overhead Mandel track sprayer equipped with an 8002E nozzle calibrated to deliver 187 L/ha over an application area of 0.503 m2 at a spray height of 18 to 20 inches (46 to 50 cm) above average plant canopy height. Control plants were sprayed in the same manner with the solvent blank.
The treated plants and control plants were placed in a greenhouse as described above and watered by sub-irrigation to prevent wash-off of the test compounds. […]
Table 1 illustrates weed control for foliar applications of compositions comprising halauxifen-methyl+2,4-D-dimethylammonium (2,4-D-DMA)+paraquat on various broadleaf weeds. […] The compositions disclosed herein can be used in burndown and fallow crop applications or in herbicide tolerant crops. These compositions can be used for broad-spectrum control of broadleaf weeds including, but not limited to, ALS, auxinic, HPPD, PPO, glufosinate and glyphosate resistant broadleaf weeds. The compositions disclosed herein can have utility in AAD1 and AAD12 monocot and dicot crops whereby there is crop tolerance to all 3 modes of action, providing growers with a solution to control susceptible and resistant broadleaf weeds, as well as to delay the development of resistance by the use of 3 modes of action product. The compositions disclosed herein can be used in non-crop and R&P/IVM situations, post directed in perennial crops, and potentially across many crops where there is tolerance to all 3 modes of action.

C[n+]1ccc(-c2cc[n+](C)cc2)cc1 [paraquat, 1-methyl-4-(1-methylpyridin-1-ium-4-yl)pyridin-1-ium]
Chem 2 Actual Mean % Weed Control (Trial 1, 17DAA): 32.50%
Chem 2 Actual Mean % Weed Control (Trial 1, 28DAA): 52.50%
Chem 2 Actual Mean % Weed Control (Trial 1, 43DAA): 60.00%
Chem 2 Actual Mean % Weed Control (Trial 2, 17DAA): 52.50%
Chem 2 Actual Mean % Weed Control (Trial 2, 28DAA): 55.00%
Chem 2 Actual Mean % Weed Control (Trial 2, 43DAA): 65.00%
